Counter-ions that a name gives are not always drawn.
Columns and labels:
SMYD3 [1] = target: T1, SMYD3 (Homo sapiens (Human), UniProt Q9H7B4); assay: SMYD3 cell assay (Trimethyl-MEKK2 In-Cell Western in 293T/17 cells transfected with MEKK2-flag and SMYD3); format: cell-based; details: Table 3A; average of n = 1 to n = 50; read-out: SMYD3 cell IC50
Excerpt: Trimethyl-MEKK2-in-Cell Western Assay
MEM/Glutamax medium, Optimem Reduced Serum medium, penicillin-streptomycin, 0.05% trypsin and 1×D-PBS were purchased from Life Technologies, Grand Island, N.Y., USA. PBS-10× was purchased from Ambion, Life Technologies, Grand Island, N.Y., USA. PBS with Tween 20 (PBST (10×)) was purchased from KPL, Gaithersburg, Md., USA. Tet System FBS-approved FBS US Source was purchased from Clontech, Mountain View, Calif., USA. Odyssey blocking buffer, 800CW goat anti-rabbit IgG (H+L) antibody, 680CW Goat anti-mouse IgG (H+L) and Licor Odyssey infrared scanner were purchased from Licor Biosciences, Lincoln, Nebr., USA. Tri-methyl-Lysine [A260]-MEKK2 antibody, MEKK2 and SMYD3 plasmids were made at Epizyme. Anti-flag monoclonal mouse antibody was purchased from Sigma, St. Louis, Mo., USA. Methanol was purchased from VWR, Franklin, Mass., USA. 10% Tween 20 was purchased from KPL, Inc., Gaithersburg, Md., USA. Fugene was purchased from Promega, Madison, Wis., USA. The Biotek ELx405 was purchased from BioTek, Winooski, Vt., USA. The multidrop combi was purchased from Thermo Scientific, Waltham, Mass., USA.
Cell Treatment, in Cell Western (ICW) for Detection of Trimethyl-Lysine-MEKK2 and MEKK2.
Plasmids were prepared for delivery to cells by first mixing 1350 μL Opti-MEM with Fugene (81 μL) in a sterile Eppendorf and incubated for five minutes at room temperature (RT). […] Entire volume of Opti-MEM/Fugene mixture was then added to a microfuge tube containing DNA plasmid, mixed and then incubated ×15 minutes at RT. […] Medium was then removed, and cells were washed once with PBS in the flask. Trypsin 0.05% (3 mL) was added and cells incubated for three minutes. Room temperature MEM+10% Tet system FBS was added and cells were mixed gently, and counted using the Vi-cell. Cells were seeded at 100,000 cells/mL in 50 μL MEM/10% Tet FBS/Pen/Strep to a 384 well black/clear poly-D-lysine coated plate containing test agent diluted in DMSO. The final top concentration of test compound was 40 μM. […] Plates were incubated ×30 minutes at RT in low-airflow area, followed by incubation at 37° C. under 5% CO2 for 24 hours. Medium was aspirated from all wells of assay plates prior to fixation and permeabilization with ice cold (−20° C.) methanol (90 μL/well) for ten minutes. Plates were rinsed with PBS three times on BioTek ELx405. PBS was removed with a final aspiration, and Odyssey blocking buffer (50 μL/well) was added to each well and incubated for one hour at RT. Primary antibody solution was prepared (anti-trimethyl-MEKK2 at 1:600 dilution plus mouse anti-flag antibody at 1:10,000 dilution in diluent (Odyssey Blocking buffer+0.1% Tween 20)) and 20 μL per well was dispensed using the Multidrop Combi. Assay plates were then sealed with foil, and incubated overnight at 4° C. Plates were washed five times with PBS-Tween (1×) on Biotek ELx405 and blotted on paper towel to remove excess reagent.
First, the ratio for each well was determined by:
Each plate included fourteen control wells of DMSO only treatment (Minimum Inhibition) as well as fourteen control wells for maximum inhibition (Background). The average of the ratio values for each control type was calculated and used to determine the percent inhibition for each test well in the plate. Reference compound was serially diluted two-fold in DMSO for a total of nine test concentrations, beginning at 40 μM. Percent inhibition was calculated (below).
Non-linear regression curves were generated to calculate the IC50 and dose-response relationship using triplicate wells per concentration of compound.

SMYD3 [2] = target: T1, SMYD3; assay: SMYD3 biochemical assay (SMYD3 enzyme assay on MEKK2 protein substrate, 3H-SAM scintillation proximity assay); details: read-out: SMYD3 Biochem IC50
Procedure, shortened: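 Detection used scintillation proximity beads to capture ³H-methylated GST-MEKK2 after quench with 100 uM final cold SAM. The reaction was started by SAM/MEKK2 addition after a 30 min RT compound–enzyme preincubation. Enzyme was tag-free full-length human SMYD3 from E. coli, in buffer of 25 mM Tris-Cl pH 8.0, 1 mM TCEP, 0.005% BSG, 0.005% Tween 20.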

[3] = Table 3A, average of n = 1 to n = 50

T1 sequence (Q9H7B4 whole entry): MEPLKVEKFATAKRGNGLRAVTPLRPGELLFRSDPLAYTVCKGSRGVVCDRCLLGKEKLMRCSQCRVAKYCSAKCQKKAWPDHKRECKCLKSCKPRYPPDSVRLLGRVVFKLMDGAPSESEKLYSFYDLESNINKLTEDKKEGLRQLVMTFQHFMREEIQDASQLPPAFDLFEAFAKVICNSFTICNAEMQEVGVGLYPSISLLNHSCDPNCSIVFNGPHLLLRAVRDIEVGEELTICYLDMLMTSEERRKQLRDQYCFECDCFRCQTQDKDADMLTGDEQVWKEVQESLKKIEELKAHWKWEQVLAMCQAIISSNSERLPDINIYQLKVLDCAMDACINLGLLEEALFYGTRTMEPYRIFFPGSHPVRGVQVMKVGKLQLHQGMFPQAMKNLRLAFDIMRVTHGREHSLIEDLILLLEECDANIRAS

Row | Compound | IC50 (SMYD3 [1]) [nM] | IC50 (SMYD3 [2]; [3]) [nM] | IC50 (SMYD3 [2]) [nM]
1 | O=C1Cc2cc(C(=O)N[C@H]3C[C@H]4CC[C@@H](C3)N4S(=O)(=O)CC3CCN(CCCO)CC3)c(Cl)cc2N1 [compound 585, 6-chloro-N-((1R,3r,5S)-8-(((1-(3-hydroxypropyl)piperidin-4-yl)methyl)sulfonyl)-8-azabicyclo[3.2.1]octan-3-yl)-2-oxoindoline-5-carboxamide] | 764 | 1.73 | –
2 | CNC1CCN(S(=O)(=O)N2[C@@H]3CC[C@H]2C[C@@H](NC(=O)c2cc4c(cc2Cl)NC(=O)C4)C3)CC1 [compound 586, 6-chloro-N-((1R,3r,5S)-8-((4-(methylamino)piperidin-1-yl)sulfonyl)-8-azabicyclo[3.2.1]octan-3-yl)-2-oxoindoline-5-carboxamide] | 425 | 1.89 | –
3 | C[C@H]1C[C@@H](NC(=O)c2cc3c(cc2Cl)NC(=O)C3)CCN1S(=O)(=O)c1ccc(C(C)(C)N)cc1 [compound 588, N-((2S,4S)-1-((4-(2-aminopropan-2-yl)phenyl)sulfonyl)-2-methylpiperidin-4-yl)-6-chloro-2-oxoindoline-5-carboxamide] | 356 | 1.98 | –
4 | CNC1CCN(S(=O)(=O)N2[C@@H]3CC[C@H]2C[C@@H](NC(=O)c2ccc4c(c2)CC(=O)N4)C3)CC1 [compound 589, N-((1R,3r,5S)-8-((4-(methylamino)piperidin-1-yl)sulfonyl)-8-azabicyclo[3.2.1]octan-3-yl)-2-oxoindoline-5-carboxamide] | 987 | 2.13 | –
5 | O=C1Cc2cc(C(=O)N[C@H]3C[C@H]4CC[C@@H](C3)N4S(=O)(=O)CC3CCCNC3)ccc2N1 (stereo partly drawn) [compound 590, 2-oxo-N-((1R,3r,5S)-8-((piperidin-3-ylmethyl)sulfonyl)-8-azabicyclo[3.2.1]octan-3-yl)indoline-5-carboxamide] | 768 | – | 2.14
6 | N[C@H]1CC[C@@H](S(=O)(=O)N2[C@@H]3CC[C@H]2C[C@@H](NC(=O)c2ccc4c(c2)CC(=O)N4)C3)CC1 [compound 591, N-((1R,3R,5S)-8-(((1s,4S)-4-aminocyclohexyl)sulfonyl)-8-azabicyclo[3.2.1]octan-3-yl)-2-oxoindoline-5-carboxamide] | 2310 | – | 2.33
7 | CN(C)C1CCN(S(=O)(=O)N2[C@@H]3CC[C@H]2C[C@@H](NC(=O)c2ccc4c(c2)CC(=O)N4)C3)CC1 [compound 593, N-((1R,3r,5S)-8-((4-(dimethylamino)piperidin-1-yl)sulfonyl)-8-azabicyclo[3.2.1]octan-3-yl)-2-oxoindoline-5-carboxamide] | 500 | 2.89 | –
8 | CN(C)C1CCN(S(=O)(=O)N2[C@@H]3CC[C@H]2C[C@@H](NC(=O)c2cc4c(cc2Cl)NC(=O)C4)C3)CC1 [compound 594, 6-chloro-N-((1R,3r,5S)-8-((4-(dimethylamino)piperidin-1-yl)sulfonyl)-8-azabicyclo[3.2.1]octan-3-yl)-2-oxoindoline-5-carboxamide] | 301 | – | 3.46
9 | O=C1Cc2cc(C(=O)N[C@H]3C[C@H]4CC[C@@H](C3)N4S(=O)(=O)CC3CCNCC3)c(Cl)cc2N1 [compound 596, 6-chloro-2-oxo-N-((1R,3r,5S)-8-((piperidin-4-ylmethyl)sulfonyl)-8-azabicyclo[3.2.1]octan-3-yl)indoline-5-carboxamide] | 2660 | 3.6 | –
10 | O=C1Cc2cc(C(=O)N[C@H]3C[C@H]4CC[C@@H](C3)N4S(=O)(=O)CC3CCNCC3)ccc2N1 [compound 597, 2-oxo-N-((1R,3r,5S)-8-((piperidin-4-ylmethyl)sulfonyl)-8-azabicyclo[3.2.1]octan-3-yl)indoline-5-carboxamide] | 3440 | 3.98 | –
11 | O=C1Cc2cc(C(=O)N[C@H]3C[C@H]4CC[C@@H](C3)N4S(=O)(=O)C[C@H]3CCCNC3)c(Cl)cc2N1 [compound 598, 6-chloro-2-oxo-N-((1R,3S,5S)-8-((((S)-piperidin-3-yl)methyl)sulfonyl)-8-azabicyclo[3.2.1]octan-3-yl)indoline-5-carboxamide] | 1270 | 4.12 | –
12 | C[C@H]1C[C@@H](NC(=O)c2ccc3c(c2)CC(=O)N3)CCN1S(=O)(=O)CC1CCNCC1 [compound 599, N-((2S,4S)-2-methyl-1-((piperidin-4-ylmethyl)sulfonyl)piperidin-4-yl)-2-oxoindoline-5-carboxamide] | 9490 | 4.42 | –
13 | O=C1Cc2cc(C(=O)N[C@H]3C[C@H]4CC[C@@H](C3)N4S(=O)(=O)C[C@@H]3CCCNC3)c(Cl)cc2N1 [compound 600, 6-chloro-2-oxo-N-((1R,3R,5S)-8-((((R)-piperidin-3-yl)methyl)sulfonyl)-8-azabicyclo[3.2.1]octan-3-yl)indoline-5-carboxamide] | 728 | 4.99 | –
14 | NC1CCN(S(=O)(=O)N2[C@@H]3CC[C@H]2C[C@@H](NC(=O)c2cc4c(cc2Br)NC(=O)C4)C3)CC1 [compound 602, N-((1R,3r,5S)-8-((4-aminopiperidin-1-yl)sulfonyl)-8-azabicyclo[3.2.1]octan-3-yl)-6-bromo-2-oxoindoline-5-carboxamide] | 3730 | 7.12 | –
15 | C[C@H]1CN(S(=O)(=O)N2CCC(N)CC2)CCC1NC(=O)c1cc2c(cc1Cl)NC(=O)C2 (stereo partly drawn) [compound 603, N-((3S)-1-((4-aminopiperidin-1-yl)sulfonyl)-3-methylpiperidin-4-yl)-6-chloro-2-oxoindoline-5-carboxamide] | 2680 | 8.53 | –
16 | CN1C(=O)Cc2cc(C(=O)N[C@H]3C[C@H]4CC[C@@H](C3)N4S(=O)(=O)N3CCC(N)CC3)c(Cl)cc21 [compound 604, N-((1R,3r,5S)-8-((4-aminopiperidin-1-yl)sulfonyl)-8-azabicyclo[3.2.1]octan-3-yl)-6-chloro-1-methyl-2-oxoindoline-5-carboxamide] | 207 | 13.5 | –
17 | CCc1cc(C(=O)N[C@H]2CCN(S(=O)(=O)N3CCC(N)CC3)[C@@H](C)C2)ns1 [compound 605, N-((2S,4S)-1-(4-aminopiperidin-1-ylsulfonyl)-2-methylpiperidin-4-yl)-5-ethyl-1,2-thiazole-3-carboxamide Hydrochloride] | 201 | – | 15.4
18 | Cc1cc2c(cc1C(=O)N[C@H]1C[C@H]3CC[C@@H](C1)N3S(=O)(=O)N1CCC(N)CC1)CC(=O)N2 [compound 606, N-((1R,3r,5S)-8-((4-aminopiperidin-1-yl)sulfonyl)-8-azabicyclo[3.2.1]octan-3-yl)-6-methyl-2-oxoindoline-5-carboxamide] | 1790 | 15.6 | –
19 | C[C@H]1C[C@@H](NC(=O)c2nnc(C3CC3)s2)CCN1S(=O)(=O)N1CCC(N)CC1 [compound 607, N-((2S,4S)-1-((4-aminopiperidin-1-yl)sulfonyl)-2-methylpiperidin-4-yl)-5-cyclopropyl-1,3,4-thiadiazole-2-carboxamide] | 205 | 18.1 | –
20 | C[C@@H]1CN(S(=O)(=O)N2CCC(N)CC2)CC[C@H]1NC(=O)c1cc2c(cc1Cl)NC(=O)C2 [compound 608, N-((3R,4R)-1-((4-aminopiperidin-1-yl)sulfonyl)-3-methylpiperidin-4-yl)-6-chloro-2-oxoindoline-5-carboxamide] | 6240 | 21.4 | –

Source: patent US10266526B2, “Substituted 1,2,3-triazoles as SMYD inhibitors for treating cancer” (EPIZYME, INC., priority 2014, dated 2019)
